Where two headings read alike, the source gives them in different places.
How the values were obtained:
Format in all cases: cell-based, Escherichia coli
[1] = tested on: EKO-35-Pore; test: MIC susceptibility profiling, porinated strain; conditions: for MIC: Escherichia coli, technical duplicate
In short: (§1)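 E. coli strains carrying a genomically integrated constitutive fhuA ΔC/Δ4L pore were grown 18 h in LB at 37 °C, then diluted 1/2000 in MHB II from OD600 ~1.0. Compounds were tested in duplicate, 2-fold serial titration, for 18 h at 37 °C with shaking. MIC came from OD600 with the pre-incubation background subtracted.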

[2] = tested on: ΔtolC-Pore; test: microbe, parasite or virus in culture
In short: as §1

[3] = tested on: wild-type (WT) K-12-Pore; test: microbe, parasite or virus in culture; conditions: Escherichia coli, technical duplicate
In short: as §1

[4] = tested on: EKO-35 araC::emrAB; test: MIC susceptibility profiling, efflux platform
In short: (§2)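 MHB II broth microdilution; inoculum from 18 h LB culture, PBS-adjusted to OD600 ~1.0, then 1/2000 dilution. Compounds 2-fold titrated, duplicates, DMSO solvent control. 18 h, 37 °C, 900 rpm; background-corrected OD600 end point.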

[5] = tested on: EKO-35 araC::acrEF; test: MIC susceptibility profiling, efflux platform
In short: as §2

[6] = tested on: EKO-35 araC::macAB; test: MIC susceptibility profiling, efflux platform
In short: as §2

[7] = tested on: EKO-35 araC::acrBD408A Pore; test: MIC susceptibility profiling, porinated efflux platform
In short: as §1

[8] = tested on: EKO-35 araC::mdtBC Pore; test: as above
In short: as §1

[9] = tested on: EKO-35 araC::acrB Pore; test: as above
In short: as §1

[10] = tested on: EKO-35 araC::mexCD Pore; test: as above
In short: as §1

[11] = tested on: EKO-35 araC::mdtEF Pore; test: as above
In short: as §1

[12] = tested on: EKO-35 araC::emrAB Pore; test: as above
In short: as §1

[13] = tested on: EKO-35 araC::macAB Pore; test: as above
In short: as §1

[14] = tested on: EKO-35 araC::emrKY Pore; test: as above
In short: as §1

[15] = tested on: EKO-35 araC::acrD Pore; test: as above
In short: as §1

[16] = tested on: EKO-35 araC::acrEF Pore; test: as above
In short: as §1

[17] = tested on: E. coli ΔtolC; test: microbe, parasite or virus in culture
In short: as §2

[18] = tested on: wild-type E. coli K-12 str. BW25113; test: microbe, parasite or virus in culture; conditions: Escherichia coli, BW25113, technical duplicate
In short: as §2

[19] = tested on: E. coli EKO-35; test: microbe, parasite or virus in culture; conditions: for MIC: Escherichia coli, EKO35, technical duplicate
In short: as §2

SMILES: [H]/N=C(/N)N[C@H]1[C@H](O)[C@@H](O)[C@H](O[C@@H]2O[C@@H](C)[C@](O)(C=O)[C@H]2O[C@@H]2O[C@@H](CO)[C@H](O)[C@@H](O)[C@@H]2NC)[C@@H](N/C(N)=N\[H])[C@@H]1O [Streptomycin]
- Fold changes of MICs ([1]; EKO-35-Pore compared to EKO-35-Pore (reference)): 1 fold
- MIC ([1]; Table 10, with pore, read-out: Minimum inhibitory concentration (MIC), Pore EKO-35): 3.12 µg/mL
- MIC ([1]; Table 14A, porinated, read-out: Minimum inhibitory concentration, EKO-35-Pore): 3.12 µg/mL
- MIC ([2]; Escherichia coli, 18 h, read-out: Minimum inhibitory concentration, ΔtolC-Pore): 1.56 µg/mL
- Minimum inhibitory concentration (MIC), Pore ΔtolC ([2]; Table 10, with pore, technical duplicate): 1.563 µg/mL
- MIC ([3]; Table 10, with pore, read-out: Minimum inhibitory concentration (MIC), Pore K-12): 12.5 µg/mL
- MIC ([3]; Table 14A, porinated, read-out: Minimum inhibitory concentration, K-12 (WT)-Pore): 12.5 µg/mL
- Fold change of MICs ([4]; EKO-35 araC::emrAB compared to EKO-35): 1 fold
- MIC ([4]; Escherichia coli, Table 13B, non-porinated, technical duplicate, read-out: Minimum Inhibitory Concentration, EKO-35 araC::emrAB): 3.12 µg/mL
- Fold change of MICs ([5]; EKO-35 araC::acrEF compared to EKO-35): 1 fold
- MIC ([5]; Escherichia coli, Table 13A, non-porinated, technical duplicate, read-out: Minimum Inhibitory Concentration, EKO-35 araC::acrEF): 3.12 µg/mL
- Fold change of MICs ([6]; EKO-35 araC::macAB compared to EKO-35): 1 fold
- MIC ([6]; Escherichia coli, Table 13B, non-porinated, technical duplicate, read-out: Minimum Inhibitory Concentration, EKO-35 araC::macAB): 3.12 µg/mL
- Fold changes of MICs ([7]; EKO-35 araC::acrBD408A Pore compared to EKO-35-Pore): 1 fold
- MIC ([7]; Escherichia coli, EKO-35 araC::acrBD408A Pore, technical duplicate, read-out: Minimum inhibitory concentration): 1.56 µg/mL
- Fold changes of MICs ([8]; EKO-35 araC::mdtBC Pore compared to EKO-35-Pore): 1 fold
- MIC ([8]; Escherichia coli, EKO-35 araC::mdtBC Pore, technical duplicate, read-out: Minimum inhibitory concentration): 3.12 µg/mL
- Fold changes of MICs ([9]; EKO-35 araC::acr-B Pore compared to EKO-35-Pore): 2 fold
- MIC ([9]; Escherichia coli, Table 14A, porinated, technical duplicate, read-out: Minimum inhibitory concentration, EKO-35 araC::acrB Pore): 6.25 µg/mL
- Fold changes of MICs ([10]; EKO-35 araC::mexCD Pore compared to EKO-35-Pore): 1 fold
- MIC ([10]; Escherichia coli, EKO-35 araC::mexCD Pore, technical duplicate, read-out: Minimum inhibitory concentration): 3.12 µg/mL
- Fold changes of MICs ([11]; EKO-35 araC::mdtEF Pore compared to EKO-35-Pore): 1 fold
- MIC ([11]; Escherichia coli, Table 14A, porinated, technical duplicate, read-out: Minimum inhibitory concentration, EKO-35 araC::mdtEF Pore): 3.12 µg/mL
- Fold changes of MICs ([12]; EKO-35 araC::emrAB Pore compared to EKO-35-Pore): 1 fold
- MIC ([12]; Escherichia coli, EKO-35 araC::emrAB Pore, technical duplicate, read-out: Minimum inhibitory concentration): 3.12 µg/mL
- Fold changes of MICs ([13]; EKO-35 araC::macAB Pore compared to EKO-35-Pore): 1 fold
- MIC ([13]; Escherichia coli, EKO-35 araC::macAB Pore, technical duplicate, read-out: Minimum inhibitory concentration): 3.12 µg/mL
- Fold changes of MICs ([14]; EKO-35 araC::emrKY Pore compared to EKO-35-Pore): 1 fold
- MIC ([14]; Escherichia coli, EKO-35 araC::emrKY Pore, technical duplicate, read-out: Minimum inhibitory concentration): 3.12 µg/mL
- Fold changes of MICs ([15]; EKO-35 araC::acrD Pore compared to EKO-35-Pore): 1 fold
- MIC ([15]; Escherichia coli, Table 14A, porinated, technical duplicate, read-out: Minimum inhibitory concentration, EKO-35 araC::acrD Pore): 3.12 µg/mL
- Fold changes of MICs ([16]; EKO-35 araC::acrEF Pore compared to EKO-35-Pore): 1 fold
- MIC ([16]; Escherichia coli, Table 14A, porinated, technical duplicate, read-out: Minimum inhibitory concentration, EKO-35 araC::acrEF Pore): 3.12 µg/mL
- MIC ([17]; Escherichia coli, 18 h, read-out: Minimum Inhibitory Concentration, ΔtolC): 3.12 µg/mL
- Minimum inhibitory concentration (MIC), ΔtolC ([17]; Table 10, without pore, technical duplicate): 3.125 µg/mL
- MIC ([18]; Table 10, without pore, read-out: Minimum inhibitory concentration (MIC), K-12): 6.25 µg/mL
- MIC ([18]; Table 13A, non-porinated, read-out: Minimum Inhibitory Concentration, K-12): 6.25 µg/mL
- Fold change of MICs ([19]; EKO-35 compared to EKO-35 (reference)): 1 fold
- MIC ([19]; Table 10, without pore, read-out: Minimum inhibitory concentration (MIC), EKO-35): 3.12 µg/mL
- MIC ([19]; Table 13A, non-porinated, read-out: Minimum Inhibitory Concentration, EKO-35): 3.12 µg/mL
